# Test: recombinant UMI read abundance after kanamycin selection (control-corrected) (log10(CPM+1)); higher = more efficient recombination; extreme values may be limits of the assay; sequences stand for … in AGTGCAGAGAAAATCGGCCAGTTTTCTCTGCCTGCAGTCCGCATGCCGTGGGACCCCTTGGGTTCTAACCTGTTGCCTAGATTTATGCAGCGGACTGCCTTTCTCCCAAAGTGATAAACCGG…AGGTTGGTTTCACT; site = the 11-nt donor
# Method in brief: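 Two replicates each of selected and unselected plating were used in this pooled Escherichia coli screen of donor and donor-binding-loop pairs for the IS621 bridge recombinase. Selection was with IPTG (0.07 mM) and kanamycin. Counts of recombinant UMIs, amplified across the donor–target junction, were converted to CPM, averaged, scaled by control-derived factors and reported as log10(CPM+1).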
# 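Further: IS621 bridge recombinase in Escherichia coli cells against a fixed T5 target plasmid.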
row,Sequence,recombinant UMI read abundance (log10)
1,GGGGCAGCATGGACCGGTTTTCCCGGTAATCCGTATTTGCA (site GGGGCAACTTG),1.47
2,GGGGCAGCATGGACCGGTTTTCCCGGTAATCCGTATTTGCA (site GGGGCACCTTG),0
3,GGGGCAGCATGGACCGGTTTTCCCGGTAATCCGTATTTGCA (site GGGGCAGCTTG),2.13
4,GGGGCAGCATGGACCGGTTTTCCCGGTAATCCGTATTTGCA (site GGGGCATCTTG),0.336
5,GGGGCCCCATGGACCGGTTTTCCCGGTAATCCGTATTTGGC (site GGGGCCCCTGC),0
6,GGGGCGCCATGGACCGGTTTTCCCGGTAATCCGTATTTGCA (site GGGGCACCTTG),0.0167
7,GGGGCGCCATGGACCGGTTTTCCCGGTAATCCGTATTTGCA (site GGGGCCCCTTG),0
8,GGGGCGCCATGGACCGGTTTTCCCGGTAATCCGTATTTGCA (site GGGGCGCCTTG),0.0101
9,GGGGCGCCATGGACCGGTTTTCCCGGTAATCCGTATTTGCA (site GGGGCTCCTTG),0
10,GGGGCTCCATGGACCGGTTTTCCCGGTAATCCGTATTTGCA (site GGGGCACCTTG),0.0623
11,GGGGCTCCATGGACCGGTTTTCCCGGTAATCCGTATTTGCA (site GGGGCCCCTTG),0.407
12,GGGGCTCCATGGACCGGTTTTCCCGGTAATCCGTATTTGCA (site GGGGCGCCTTG),0.0195
13,GGGGCTCCATGGACCGGTTTTCCCGGTAATCCGTATTTGCA (site GGGGCTCCTTG),1.13
14,GGGGTAGCATGGACCGGTTTTCCCGGTAATCCGTATTTGTC (site GGGGTAGCTGA),2.71
15,GGGTAATCATGGACCGGTTTTCCCGGTAATCCGTATTTGAT (site GGGTAATCTAT),3.04
16,GGGTACGCATGGACCGGTTTTCCCGGTAATCCGTATTTGTA (site GGGTACGCTTA),2.47
17,GGGTAGACATGGACCGGTTTTCCCGGTAATCCGTATTTGCC (site GGATAGACTGG),2.81
18,GGGTAGACATGGACCGGTTTTCCCGGTAATCCGTATTTGCC (site GGCTAGACTGG),0
19,GGGTAGACATGGACCGGTTTTCCCGGTAATCCGTATTTGCC (site GGGTAGACTGG),2.39
20,GGGTAGACATGGACCGGTTTTCCCGGTAATCCGTATTTGCC (site GGTTAGACTGG),0.949
21,GGTAATTCATGGACCGGTTTTCCCGGTAATCCGTATTTGGT (site GGTAATTCTAC),1.18
22,GGTACATCATGGACCGGTTTTCCCGGTAATCCGTATTTGTT (site GGTACATCTAA),0.0632
23,GGTACATCATGGACCGGTTTTCCCGGTAATCCGTATTTGTT (site GGTACCTCTAA),0.00401
24,GGTACATCATGGACCGGTTTTCCCGGTAATCCGTATTTGTT (site GGTACGTCTAA),0.0133
25,GGTACATCATGGACCGGTTTTCCCGGTAATCCGTATTTGTT (site GGTACTTCTAA),0.00584

row,Sequence,recombinant UMI read abundance (log10)
1,GGTACGTCATGGACCGGTTTTCCCGGTAATCCGTATTTGGA (site GGTACGTCTTC),0.695
2,GGTACTCCATGGACCGGTTTTCCCGGTAATCCGTATTTGTA (site GGTACTCCTTA),0.301
3,GGTACTGCATGGACCGGTTTTCCCGGTAATCCGTATTTGGA (site GGTACTGCTTC),0.135
4,GGTACTTCATGGACCGGTTTTCCCGGTAATCCGTATTTGTT (site GGTACATCTAA),0.0111
5,GGTACTTCATGGACCGGTTTTCCCGGTAATCCGTATTTGTT (site GGTACCTCTAA),0.0128
6,GGTACTTCATGGACCGGTTTTCCCGGTAATCCGTATTTGTT (site GGTACGTCTAA),0.011
7,GGTACTTCATGGACCGGTTTTCCCGGTAATCCGTATTTGTT (site GGTACTTCTAA),0.456
8,GGTAGGTCATGGACCGGTTTTCCCGGTAATCCGTATTTGTT (site GGTAAGTCTAA),0.00393
9,GGTAGGTCATGGACCGGTTTTCCCGGTAATCCGTATTTGTT (site GGTACGTCTAA),0.0163
10,GGTAGGTCATGGACCGGTTTTCCCGGTAATCCGTATTTGTT (site GGTAGGTCTAA),0.00338
11,GGTAGGTCATGGACCGGTTTTCCCGGTAATCCGTATTTGTT (site GGTATGTCTAA),0.0159
12,GGTAGTGCATGGACCGGTTTTCCCGGTAATCCGTATTTGCC (site GGTAGTGCTGG),1.61
13,GGTATGGCATGGACCGGTTTTCCCGGTAATCCGTATTTGCA (site GGTATGGCTTG),1.9
14,GGTCATCCATGGACCGGTTTTCCCGGTAATCCGTATTTGAA (site GGTCATCCTTT),0.0104
15,GGTCATTCATGGACCGGTTTTCCCGGTAATCCGTATTTGTG (site GGTCATTCTCA),1.05
16,GGTCCAACATGGACCGGTTTTCCCGGTAATCCGTATTTGAA (site GGTCCAACTTA),0.0074
17,GGTCCAACATGGACCGGTTTTCCCGGTAATCCGTATTTGAA (site GGTCCAACTTC),0.00549
18,GGTCCAACATGGACCGGTTTTCCCGGTAATCCGTATTTGAA (site GGTCCAACTTG),0
19,GGTCCAACATGGACCGGTTTTCCCGGTAATCCGTATTTGAA (site GGTCCAACTTT),0.0109
20,GGTCCAACATGGACCGGTTTTCCCGGTAATCCGTATTTGTT (site GGTCCAACTAA),0.0107
21,GGTCCAACATGGACCGGTTTTCCCGGTAATCCGTATTTGTT (site GGTCCAACTCA),0.0106
22,GGTCCAACATGGACCGGTTTTCCCGGTAATCCGTATTTGTT (site GGTCCAACTGA),0.00734
23,GGTCCAACATGGACCGGTTTTCCCGGTAATCCGTATTTGTT (site GGTCCAACTTA),0.0123
24,GGTCCGACATGGACCGGTTTTCCCGGTAATCCGTATTTGTA (site GGTCCAACTTA),0.0275
25,GGTCCGACATGGACCGGTTTTCCCGGTAATCCGTATTTGTA (site GGTCCCACTTA),0.00256

row,Sequence,recombinant UMI read abundance (log10)
1,GGTCCGACATGGACCGGTTTTCCCGGTAATCCGTATTTGTA (site GGTCCGACTTA),0.0268
2,GGTCCGACATGGACCGGTTTTCCCGGTAATCCGTATTTGTA (site GGTCCTACTTA),0.0182
3,GGTCCGGCATGGACCGGTTTTCCCGGTAATCCGTATTTGTC (site GGTCCGGCTGA),0
4,GGTCCTACATGGACCGGTTTTCCCGGTAATCCGTATTTGTA (site GGTCCAACTTA),0.00723
5,GGTCCTACATGGACCGGTTTTCCCGGTAATCCGTATTTGTA (site GGTCCCACTTA),0.0198
6,GGTCCTACATGGACCGGTTTTCCCGGTAATCCGTATTTGTA (site GGTCCGACTTA),0.0128
7,GGTCCTACATGGACCGGTTTTCCCGGTAATCCGTATTTGTA (site GGTCCTACTTA),0.0187
8,GGTCCTCCATGGACCGGTTTTCCCGGTAATCCGTATTTGTT (site GGTCCTCCTAA),0.025
9,GGTCGAGCATGGACCGGTTTTCCCGGTAATCCGTATTTGCA (site GATCGAGCTTG),0.273
10,GGTCGAGCATGGACCGGTTTTCCCGGTAATCCGTATTTGCA (site GCTCGAGCTTG),0.0115
11,GGTCGAGCATGGACCGGTTTTCCCGGTAATCCGTATTTGCA (site GGTCGAGCTTG),1.83
12,GGTCGAGCATGGACCGGTTTTCCCGGTAATCCGTATTTGCA (site GTTCGAGCTTG),0.824
13,GGTCGCTCATGGACCGGTTTTCCCGGTAATCCGTATTTGCT (site GGTCGCTCTAG),0.782
14,GGTCGGCCATGGACCGGTTTTCCCGGTAATCCGTATTTGAA (site GGTCGGCCTTT),0
15,GGTGAGCCATGGACCGGTTTTCCCGGTAATCCGTATTTGGG (site GGTGAGCCTCC),0.0257
16,GGTGCATCATGGACCGGTTTTCCCGGTAATCCGTATTTGCT (site GGTGCATCTAG),1.92
17,GGTGCCCCATGGACCGGTTTTCCCGGTAATCCGTATTTGAC (site GGTGCCCCTGT),0
18,GGTGGAACATGGACCGGTTTTCCCGGTAATCCGTATTTGTT (site AGTGGAACTAA),0.371
19,GGTGGAACATGGACCGGTTTTCCCGGTAATCCGTATTTGTT (site CGTGGAACTAA),0.00196
20,GGTGGAACATGGACCGGTTTTCCCGGTAATCCGTATTTGTT (site GGTGGAACTAA),0.746
21,GGTGGAACATGGACCGGTTTTCCCGGTAATCCGTATTTGTT (site TGTGGAACTAA),0.00382
22,GGTGTGCCATGGACCGGTTTTCCCGGTAATCCGTATTTGAC (site GGTGTGCCTGT),0
23,GGTTACTCATGGACCGGTTTTCCCGGTAATCCGTATTTGGA (site GGTTACTCTTC),1.18
24,GGTTAGACATGGACCGGTTTTCCCGGTAATCCGTATTTGAG (site AGTTAGACTCT),0.498
25,GGTTAGACATGGACCGGTTTTCCCGGTAATCCGTATTTGAG (site CGTTAGACTCT),0.202

# Source: the supplement of paper PMC11208160
